# Data reported in patent US11518981B2, “Methods of enhancing engraftment activity of hematopoietic stem cells” (CHILDREN'S HOSPITAL MEDICAL CENTER, priority 2017, dated 2022).
# How the values were obtained:
# γH2AX = experiment: DNA damage response (γH2AX, 53BP1) by immunofluorescence and flow cytometry; type: cell-based, human
# Description: For EdU incorporation assay, cells were incubated with 10 μM EdU throughout the culture period and the CLICK-IT® Plus EdU Pacific Blue Flow Cytometry Assay Kit (ThermoFisher Scientific C10636) was used for staining. […] Samples were run through a FACSCANTOTM, FORTESSATM, or LSR 2 flow cytometers (BD Biosciences), and the data was analyzed by […] software (BD). […] II cell sorter. FACS sorted CD34+38-90+ cells were fixed in 2% paraformaldehyde and permeabilized using 0.1% […] polyether alcohol, Sigma-Aldrich). […] Cells were counterstained and mounted with […]® antifade mounting medium with DAPI (H-1200 Vector Laboratories). Images were obtained using a Nikon 90i upright microscope.
# [1] = system: human MPB derived CD34^+ cells; experiment: multi-lineage reconstitution (myeloid / B-lymphoid) in bone marrow of NSG mice; type: in vivo
# Excerpt: NOD.Cg-Prkdcscid Il2rgtm1Wjl/SzJ (NSG) mice were purchased from The Jackson Laboratory (Bar Harbor, Me.). All animals were bred and maintained in a specific pathogen-free environment and all experiments were approved by the Institutional Animal Care and Use (IACUC) Committee. Male and female NSG mice aged 8 to 14 weeks old were fed doxycycline chow (TestDiet; Modified Prolab RMH-1500 with 0.0625% doxycycline) a week prior to, during and for 2 weeks post irradiation. Human engraftment was analyzed in bone marrow (BM), via BM aspirates performed at 6 and 12 weeks from left and right femurs. After sacrifice at 24 weeks, marrow from all of the primary mice (1 T) was harvested. Peripheral blood analysis was also performed in some experiments. Secondary transplants (2 T) were performed after mouse CD45^+ cells were depleted from BM harvested from each 1 T mouse separately, using Biotin Rat Anti-Mouse CD45 (BD Biosciences 553078) and Streptavidin Particles Plus-DM (BD Biosciences 557812) and injected into one irradiated (280 cGy) secondary NSG mouse. For calculating competitive repopulating units (CRU) from limiting dilution transplantation, the L-CALC^TM software (Stem Cell Technologies) was used. All of the mice used for this study were randomly assigned to a treatment group. No animals were excluded from the analysis. PE-Cyanine 7 or APC-EFLUOR® 780, APC- or PE-conjugated antibodies directed to human CD34 (BD Biosciences 560710 or 555824), CD38 (eBiosciences, San Diego, Calif. 47-0389-42), CD90 (BioLegend 328120), CD45RA (eBiosciences 17-0458-42), CD49f (BD Biosciences 555736), CD45 (BD 55485 or Biolegend 304026), CD33 (eBiosciences 25-0338-42), CD19 (BD Biosciences 557791), or CD3 (BD Biosciences 555340). Cells ( 5×10^5-1×10^6) were used to label with antibodies as per manufacturer instructions with the appropriate isotype controls. For phospho-flow, primary antibodies phospho-[…]), phospho-p44/42 MAPK (ERK 1⁄2) […]; […]), and phospho-JNK […] PE conjugate; […]) (all from Cell Signaling) were used for staining overnight followed by wash and secondary antibody stain including Goat anti-Rabbit IgG (H+L) or Goat anti-Rabbit IgG (H+L) or Pacific Blue (P-10994) antibody. Apoptosis assay was performed using PE Annexin V Apoptosis Detection Kit (BD Biosciences 559763) according to the manufacturer's instructions. Total ROS and mitochondrial specific ROS were detected using 10 μM CM-H2DCFDA (ThermoFisher Scientific C6827) and 5 μM MITOSOXTM Red (Red Mitochondrial Superoxide Indicator) (ThermoFisher Scientific M36008) respectively, following manufacturer's instructions.
# CD34^+38^−90^+ cells = experiment: Annexin V apoptosis assay in HSCs; type: cell-based, human; settings: annexin V^+ CD34^+38^−90^+ cells
# Excerpt: PE-Cyanine 7 or APC-EFLUOR® 780, APC- or PE-conjugated antibodies directed to human CD34 (BD Biosciences 560710 or 555824), CD38 (eBiosciences, San Diego, Calif. 47-0389-42), CD90 (BioLegend 328120), CD45RA (eBiosciences 17-0458-42), CD49f (BD Biosciences 555736), CD45 (BD 55485 or Biolegend 304026), CD33 (eBiosciences 25-0338-42), CD19 (BD Biosciences 557791), or CD3 (BD Biosciences 555340). Cells (˜5×10^5−1×10^6) were used to label with antibodies as per manufacturer instructions with the appropriate isotype controls. For phospho-flow, primary antibodies phospho-p38 (Thr180/Tyr182; 4092S), phospho-p44/42 MAPK (ERK ½) (Thr202/Tyr204; 4094S), and phospho-JNK (Thr183-Tyr185 PE conjugate; 5755S) (all from Cell Signaling) were used for staining overnight followed by wash and secondary antibody stain including Goat anti-Rabbit IgG (H+L) or Goat anti-Rabbit IgG (H+L) or Pacific Blue (P-10994) antibody. Apoptosis assay was performed using PE Annexin V Apoptosis Detection Kit (BD Biosciences 559763) according to the manufacturer's instructions. Total ROS and mitochondrial specific ROS were detected using 10 μM CM-H2DCFDA (ThermoFisher Scientific C6827) and 5 μM MITOSOX™ Red (Red Mitochondrial Superoxide Indicator) (ThermoFisher Scientific M36008) respectively, following manufacturer's instructions.
compound,measurement,setting,value
"Cc1ccc(-n2nc(C(C)(C)C)cc2NC(=O)Nc2ccc(OCCN3CCOCC3)c3ccccc23)cc1 [p38i, 1-[5-tert-butyl-2-(4-methylphenyl)pyrazol-3-yl]-3-[4-(2-morpholin-4-ylethoxy)naphthalen-1-yl]urea]",γH2AX levels in the transduced HSCs,"γH2AX; 72 h, RV transduced cycling HSCs",significantly reduced
same,percentage of γH2AX^+ cells,"γH2AX; flow cytometry, 36-42 h and 72-96 h groups",significantly reduced
same,γH2AX MFI and number of γH2AX positive HSC,"γH2AX; flow cytometry, 24 h",returned to levels seen in unmanipulated HSCs
same,myeloid skewing of the transduced progeny,"[1]; 24 week 1 T, cycling HSCs transduced (RV group)","somewhat reduced, but still quite significant"
same,multi-potentiality of the graft,"[1]; 24 week 1 T, gene transfer in first 24 h (non-cycling HSCs), culture up to 96 h",restored the multi-potentiality of the graft at 24 week (1 T) to levels similar to 0 h controls
same,lineage balance in transduced HSCs progeny,"[1]; limiting dilution transplant, 42 h LV, 6 mo post 1 T",had less effect
same,lineage balance in untransduced progeny,"[1]; limiting dilution transplant, 42 h LV, 6 mo post 1 T, higher HSPC dosage",sufficient to restore lineage balance
same,apoptosis in the HSC compartment,CD34^+38^−90^+ cells,no difference
